Experimental data: PubChem BioAssay AID296 (DTP/NCI, 2004)
Values joined by “and” are separate entries in the source; they are usually repeats but may differ in a detail not shown here. Identical values can stand only once. Records with an inconclusive call do not appear.

System: MX-1 breast xenograft, nude mice, tumor weight T/C
Assay: NCI In Vivo Anticancer Drug Screen. Data for tumor model Human Mammary Carcinoma MX-1 Xenograft (intrarenal inoculation) in NU/NU Swiss (nude) mice
Details: endpoint: mean tumor weight change, higher = larger tumour
Experimental: The antitumor activity of compounds was measured in mice bearing transplantable tumors. Survival or tumor size were measured and the results are expressed as the measurement made in the treated group (T) divided by the measurement made in the vehicle treated control group (C). The tumor model used in this assay is Human Mammary Carcinoma MX-1 Xenograft (intrarenal inoculation) in NU/NU Swiss (nude) mice

[1] = dose: 300.0 mg/kg/injection, schedule: Q04DX003 (sc), vehicle: saline
[2] = dose: 1200.0 mg/kg/injection, schedule: Q04DX003 (sc), vehicle: saline
[3] = dose: 300.0 mg/kg/injection, schedule: Q04DX003 (sc), vehicle: saline with Tween-80
[4] = dose: 600.0 mg/kg/injection, schedule: Q04DX003 (sc), vehicle: Klucel (hydroxypropylcellulose) (HPC)
[5] = dose: 1200.0 mg/kg/injection, schedule: Q04DX003 (sc), vehicle: Klucel (hydroxypropylcellulose) (HPC)
[6] = dose: 100.0 mg/kg/injection, schedule: Q04DX003 (sc), vehicle: suspension in saline
[7] = dose: 300.0 mg/kg/injection, schedule: Q04DX003 (sc), vehicle: Klucel (hydroxypropylcellulose) (HPC)
[8] = dose: 2400.0 mg/kg/injection, schedule: Q04DX003 (sc), vehicle: Klucel (hydroxypropylcellulose) (HPC)
[9] = dose: 50.0 mg/kg/injection, schedule: Q04DX003 (sc), vehicle: Klucel (hydroxypropylcellulose) (HPC)
[10] = dose: 100.0 mg/kg/injection, schedule: Q04DX003 (sc), vehicle: Klucel (hydroxypropylcellulose) (HPC)
[11] = dose: 400.0 mg/kg/injection, schedule: Q04DX003 (sc), vehicle: Klucel (hydroxypropylcellulose) (HPC)
[12] = dose: 600.0 mg/kg/injection, schedule: Q04DX003 (sc), vehicle: saline with Tween-80
[13] = dose: 1200.0 mg/kg/injection, schedule: Q04DX003 (sc), vehicle: saline with Tween-80
[14] = dose: 2400.0 mg/kg/injection, schedule: Q04DX003 (sc), vehicle: saline with Tween-80
[15] = dose: 800.0 mg/kg/injection, schedule: Q04DX003 (sc), vehicle: Klucel (hydroxypropylcellulose) (HPC)
[16] = dose: 75.0 mg/kg/injection, schedule: Q04DX003 (sc), vehicle: saline
[17] = dose: 150.0 mg/kg/injection, schedule: Q04DX003 (sc), vehicle: saline

OCC1OC(n2cnc3c(Cl)ncnc32)C(O)C1O (configuration not stated)
T/C [1]: 74 % of control
T/C (dose: 600.0 mg/kg/injection, schedule: Q04DX003 (sc), vehicle: saline): 84 % of control
T/C [2]: 80 % of control

FC(F)(F)c1nc2nc(Cl)c(Cl)nc2[nH]1
T/C (dose: 75.0 mg/kg/injection, schedule: Q04DX003 (sc), vehicle: saline with Tween-80): 92 % of control
T/C (dose: 150.0 mg/kg/injection, schedule: Q04DX003 (sc), vehicle: saline with Tween-80): 97 % of control
T/C [3]: 90 % of control

Clc1ccc(C2SC=Cc3ccccc32)cc1 (configuration not stated)
T/C [4]: 90 % of control
T/C [5]: 115 % of control

CC(C)=CCNc1ncnc2c1ncn2C1OC(CO)C(O)C1O (configuration not stated)
T/C [6]: 122 % of control

CCc1c(CC(=O)O)c2cc(C)ccc2n1Cc1ccc(Cl)cc1
T/C [7]: 71 % of control
T/C [4]: 86 % of control
T/C [5]: 51 % of control
T/C [8]: 49 % of control

O=C(O)/C=C/C(=O)Nc1ccc(Cl)c(Cl)c1
T/C [9]: 111 % of control
T/C [10]: 91 % of control
T/C [11]: 120 % of control

NC(C/[N+]([O-])=N/O)C(=O)O (configuration not stated)
T/C (dose: 50.0 mg/kg/injection, schedule: Q01DX010 (sc), vehicle: saline): 98 % of control
T/C (dose: 100.0 mg/kg/injection, schedule: Q01DX010 (sc), vehicle: saline): 62 % of control

CC(=O)NC(Cc1ccc(F)cc1)C(=O)O (configuration not stated)
T/C [3]: 100 % of control
T/C [12]: 101 % of control
T/C [13]: 120 % of control
T/C [14]: 111 % of control

OC1CCCC2CCC[N-]C12.OC1CCCC2CCC[N-]C12.[Mn+2] (configuration not stated)
T/C [7]: 87 % of control
T/C [4]: 108 % of control
T/C [5]: 65 % of control
T/C [8]: 73 % of control

COc1ccc2c(NCCCCCCNc3c4ccccc4nc4cc(OC)ccc34)c3ccccc3nc2c1
T/C (dose: 1.25 mg/kg/injection, schedule: Q01DX010 (sc), vehicle: lactic acid): 81 % of control
T/C (dose: 2.5 mg/kg/injection, schedule: Q01DX010 (sc), vehicle: lactic acid): 165 % of control
T/C (dose: 5.0 mg/kg/injection, schedule: Q01DX010 (sc), vehicle: lactic acid): 79 % of control
T/C (dose: 10.0 mg/kg/injection, schedule: Q01DX010 (sc), vehicle: lactic acid): 92 % of control

CCCCCCOC(CN(C)C)C(Cl)(Cl)Cl (configuration not stated)
T/C [3]: 70 % of control
T/C [12]: 69 % of control
T/C [13]: 71 % of control
T/C [14]: 58 % of control

Nc1ncnc2c1ncn2C1C=C(CO)C(O)C1O (configuration not stated)
T/C (dose: 3.75 mg/kg/injection, schedule: Q04DX003 (sc), vehicle: saline): 88 % of control
T/C (dose: 7.5 mg/kg/injection, schedule: Q04DX003 (sc), vehicle: saline): 75 % of control
T/C (dose: 15.0 mg/kg/injection, schedule: Q04DX003 (sc), vehicle: saline): 64 % of control

Cc1c(-c2ccc(C3CCCCC3)cc2)nc2ccc(F)cc2c1C(=O)O
T/C [7]: 86 % of control
T/C [4]: 75 % of control
T/C [5]: 80 % of control
T/C [8]: 96 % of control

OCCO
T/C (dose: 8.0 % in 0.5 ml injection vol, schedule: Q04DX003 (sc), vehicle: water): 69 % of control
T/C (dose: 16.0 % in 0.5 ml injection vol, schedule: Q04DX003 (sc), vehicle: water): 87 % of control

O=C(O)C(CSC(c1ccccc1)(c1ccccc1)c1ccccc1)N=Cc1cccs1 (configuration not stated)
T/C (dose: 800.0 mg/kg/injection, schedule: Q04DX003 (sc), vehicle: suspension in saline): 67 % of control

OCCOCC(F)(F)F
T/C [1]: 82 % of control
T/C [2]: 86 % of control
T/C (dose: 2400.0 mg/kg/injection, schedule: Q04DX003 (sc), vehicle: saline): 49 % of control

O=C(Nc1ccc(N=C=S)cc1Cl)c1cc(Cl)cc(Cl)c1O
T/C (dose: 25.0 mg/kg/injection, schedule: Q04DX003 (sc), vehicle: Klucel (hydroxypropylcellulose) (HPC)): 105 % of control
T/C [9]: 79 % of control
T/C [10]: 117 % of control
T/C [11]: 50 % of control
T/C [15]: 48 % of control

Cc1c2cc[n+](CCN3CCCCC3)cc2c(C)c2c1[nH]c1ccc(O)cc12
T/C (dose: 25.0 mg/kg/injection, schedule: Q04DX003 (sc), vehicle: suspension in saline): 159 % of control
T/C (dose: 50.0 mg/kg/injection, schedule: Q04DX003 (sc), vehicle: suspension in saline): 163 % of control
T/C [6]: 159 % of control

CC(=O)/C(=C\c1ccc(Cl)c(Cl)c1)C(=O)CCN(C)C
T/C (dose: 25.0 mg/kg/injection, schedule: Q04DX003 (ip), vehicle: saline): 166 % of control
T/C (dose: 50.0 mg/kg/injection, schedule: Q04DX003 (ip), vehicle: saline): 98 % of control
T/C (dose: 100.0 mg/kg/injection, schedule: Q04DX003 (ip), vehicle: saline): 83 % of control

Nc1ccc(C(OC(=O)c2cc3ccccc3c(Cc3c(O)c(C(=O)OC(c4ccc(N)cc4)(c4ccc(N)cc4)c4ccc(N)cc4)cc4ccccc34)c2O)(c2ccc(N)cc2)c2ccc(N)cc2)cc1
T/C (dose: 72.0 mg/kg/injection, schedule: Q04DX003 (sc), vehicle: saline with Tween-80): 97 % of control
T/C (dose: 144.0 mg/kg/injection, schedule: Q04DX003 (sc), vehicle: saline with Tween-80): 104 % of control
T/C (dose: 288.0 mg/kg/injection, schedule: Q04DX003 (sc), vehicle: saline with Tween-80): 87 % of control

NC(=O)c1cn(C2OC(CO)C(O)C2O)c2ncnc(N)c12 (configuration not stated)
T/C (dose: 1.5 mg/kg/injection, schedule: Q04DX003 (sc), vehicle: saline): 77 % of control
T/C (dose: 3.0 mg/kg/injection, schedule: Q04DX003 (sc), vehicle: saline): 61 % of control
T/C (dose: 6.0 mg/kg/injection, schedule: Q04DX003 (sc), vehicle: saline): 40 % of control

CNC(=O)OCc1c(COC(=O)NC)c(-c2ccccc2)n(C)c1-c1ccccc1
T/C (dose: 100.0 mg/kg/injection, schedule: Q04DX003 (sc), vehicle: distilled water + Tween-80): 121 % of control
T/C (dose: 200.0 mg/kg/injection, schedule: Q04DX003 (sc), vehicle: distilled water + Tween-80): 51 % of control
T/C (dose: 400.0 mg/kg/injection, schedule: Q04DX003 (sc), vehicle: distilled water + Tween-80): 78 % of control
T/C (dose: 800.0 mg/kg/injection, schedule: Q04DX003 (sc), vehicle: distilled water + Tween-80): 74 % of control

CN(C)CC(Cl)CCl (configuration not stated)
T/C [16]: 50 % of control
T/C [17]: 85 % of control
T/C [1]: 28 % of control

CC(=O)OC1C(O)C(C)OC(OC2C(OC(=O)C3CCC4C(C3)OC3(CC(OC(=O)/C=C/c5ccccc5)C(C)CO3)C43CO3)OC(C)C(O)C2OC(C)=O)C1O (configuration not stated)
T/C (dose: 15.0 mg/kg/injection, schedule: Q04DX003 (sc), vehicle: distilled water + Tween-80): 124 % of control
T/C (dose: 30.0 mg/kg/injection, schedule: Q04DX003 (sc), vehicle: distilled water + Tween-80): 117 % of control
T/C (dose: 60.0 mg/kg/injection, schedule: Q04DX003 (sc), vehicle: distilled water + Tween-80): 73 % of control
T/C (dose: 120.0 mg/kg/injection, schedule: Q04DX003 (sc), vehicle: distilled water + Tween-80): 61 % of control

Nc1nc2ccc(NCc3ccc(C(=O)NC(CCC(=O)O)C(=O)O)cc3)cc2c(=O)[nH]1 (configuration not stated)
T/C (dose: 100.0 mg/kg/injection, schedule: Q04DX003 (sc), vehicle: saline with Tween-80): 93 % of control
T/C (dose: 200.0 mg/kg/injection, schedule: Q04DX003 (sc), vehicle: saline with Tween-80): 93 % of control
T/C (dose: 400.0 mg/kg/injection, schedule: Q04DX003 (sc), vehicle: saline with Tween-80): 90 % of control
T/C (dose: 800.0 mg/kg/injection, schedule: Q04DX003 (sc), vehicle: saline with Tween-80): 23 % of control

O=C(O)C(O)C(O)C1[O][Sb][O]C1C(=O)O (configuration not stated)
T/C [16]: 91 % of control
T/C [17]: 99 % of control

O=S(=O)(SC(S(=O)(=O)c1ccccc1)S(=O)(=O)c1ccccc1)c1ccccc1
T/C [10]: 68 % of control
T/C (dose: 200.0 mg/kg/injection, schedule: Q04DX003 (sc), vehicle: Klucel (hydroxypropylcellulose) (HPC)): 42 % of control
T/C [11]: 84 % of control
T/C [4]: 100 % of control
T/C [15]: 87 % of control and 98 % of control
T/C (dose: 1600.0 mg/kg/injection, schedule: Q04DX003 (sc), vehicle: Klucel (hydroxypropylcellulose) (HPC)): 112 % of control
